Each structure is given as a SMILES string.

Data set [1] deals with T1, Nav1.8 ion channel stably expressed on HEK293 cells (Homo sapiens, UniProt Q9Y5Y9).
T1 construct: expressed in transfected cells; host or cells: HEK293
The experiment in a line: Inhibitory activity on Nav1.8, manual patch clamp. Conditions: resting, clamped at -80 mV, 1 μM TTX, read-out: IC50 on inhibiting the Nav1.8 channel activity. Type of data set: cell-based. The text has this:
The purpose of the experiment is to investigate the effect of the compounds on Nav1.8 ion channel in an in vitro experiment, wherein the Nav1.8 ion channel is stably expressed on HEK293 cells. After the Nav1.8 current becomes stable, the Nav1.8 currents before and after the administration of the compound are compared so as to obtain the effect of the compound on the Nav1.8 ion channel.
Except for NaOH and KOH used for acid titration and base titration, all the compounds used for formulating the extracellular fluid and intracellular fluid were purchased from Sigma (St. Louis, Mo.). Extracellular fluid (mM): NaCl, 137; KCl, 4; CaCl2), 1.8; MgCl2, 1; HEPES, 10; glucose, 10; pH 7.4 (NaOH titration). Intracellular fluid (mM): aspartic acid, 140; MgCl2, 2; EGTA, 11; HEPES, 10; pH 7.2 (CsOH titration). All solutions of test compound and control compound contained 1 μM TTX.
The test compound was dissolved in dimethyl sulfoxide (DMSO) at a stock concentration of 9 mM. The stock solution of the test compound was dissolved in the extracellular fluid on the day of the test and formulated into the required concentration.
1) The compound was formulated into solutions with specified concentrations, the solutions were added to the pipelines respectively in order from low to high concentration, and the pipelines were marked.
2) The cell was transferred to the perfusion tank. A positive pressure was applied to the electrode. The tip of the electrode touched the cell. The three-way valve of the air extracting device was adjusted to a three-way state. A negative pressure was applied to the electrode, so that a high-resistance seal was formed between the electrode and the cell.
The negative pressure was applied continuously, thereby causing the cell membrane to rupture and forming a current path.
3) After the current for rupturing the cell membrane became stable, perfusion of different concentrations was carried out in sequence. Once the current was stable for at least one minute, perfusion of the next concentration was carried out.
4) The perfusion tank was cleaned. The perfusion tank was rinsed with the drug solutions in order from high to low concentration, and the rinse duration for each concentration of drug solution was 20 seconds. The perfusion tank was finally rinsed with the extracellular fluid for 1 minute.
The cell was clamped at −80 mV. The cell was depolarized to 10 mV with a square wave lasting 10 milliseconds to obtain the Nav1.8 current. This procedure was repeated every 5 seconds. The maximum current caused by the square wave was measured. After the current became stable, the test compound was perfused. After the response became stable, the blocking intensity was calculated.
The data was stored in the computer system for analysis. Data collection and analysis were carried out by pCLAMP 10 (Molecular Devices, Union City, Calif.), and the analysis results were reviewed by the administrator. Stable current means that the current changes within a limited range over time. The magnitude of stable current was used to calculate the effect of the compound at the concentration.
On the technique in general: The patch-clamp technique gives a direct electrical read-out from membranes.

Data set [2] can be described thus: Pharmacokinetics assay in rats after intragastrical administration. The following applies: both sexes, Sprague-Dawley (SD), rat, plasma, po, 2 mg/kg; for Vd/F: read-out: Apparent distribution volume Vz/F; for AUC: read-out: Area under curve AUC; for bioavailability: read-out: Bioavailability F; for CL/F: read-out: Clearance CL/F; for half-life: read-out: Half-life T½ (converted); for Cmax: read-out: Plasma concentration Cmax; for MRT: read-out: Residence time MRT. Type of data set: in vivo. The procedure:
Rats were used as test animals. The drug concentration in plasma at different time points was determined by LC/MS/MS method after intragastrical administration of the compounds of Example 2, Example 11, Example 12, Example 15, Example 31 and Example 33 to rats. The pharmacokinetic behavior of the compounds of the present disclosure was studied and evaluated in rats.
Twenty-four healthy adult SD rats (half male and half female, equally divided into six groups, four rats per group) were purchased from Shanghai Jiesijie Laboratory Animal Co., LTD.
A certain amount of the test compound was weighed, to which 5% of DMSO, 5% of tween 80 and 90% of normal saline were added to prepare a 0.2 mg/mL colorless, clear and transparent solution.
After an overnight fast, SD rats were intragastrically administered the test compound at an administration dose of 2.0 mg/kg and an administration volume of 10.0 mL/kg.
The rats were intragastrically administered the compounds of Example 2, Example 11, Example 12, Example 15, Example 31 and Example 33. 0.2 ml of blood was taken from the orbit before the administration and at 0.5, 1.0, 2.0, 4.0, 6.0, 8.0, 11.0 and 24.0 hours after the administration. The samples were stored in heparinized tubes, and centrifuged for 10 minutes at 10000 rpm and 4° C. to separate the blood plasma. The plasma samples were stored at −20° C. The rats were fed 2 hours after the administration.
The content of the test compound in the plasma of rats after intragastrical administration of the test compound at different concentrations was determined: 25 μL of rat plasma at each time point after the administration was taken, to which 30 μL of the internal standard solution and 175 μL of acetonitrile were added. The resulting solution was vortex-mixed for 5 minutes, and centrifuged for 10 minutes (3700 rpm). 0.5 μL of the supernatant was taken from the plasma samples for LC/MS/MS analysis.

T1 sequence (Q9Y5Y9 whole entry): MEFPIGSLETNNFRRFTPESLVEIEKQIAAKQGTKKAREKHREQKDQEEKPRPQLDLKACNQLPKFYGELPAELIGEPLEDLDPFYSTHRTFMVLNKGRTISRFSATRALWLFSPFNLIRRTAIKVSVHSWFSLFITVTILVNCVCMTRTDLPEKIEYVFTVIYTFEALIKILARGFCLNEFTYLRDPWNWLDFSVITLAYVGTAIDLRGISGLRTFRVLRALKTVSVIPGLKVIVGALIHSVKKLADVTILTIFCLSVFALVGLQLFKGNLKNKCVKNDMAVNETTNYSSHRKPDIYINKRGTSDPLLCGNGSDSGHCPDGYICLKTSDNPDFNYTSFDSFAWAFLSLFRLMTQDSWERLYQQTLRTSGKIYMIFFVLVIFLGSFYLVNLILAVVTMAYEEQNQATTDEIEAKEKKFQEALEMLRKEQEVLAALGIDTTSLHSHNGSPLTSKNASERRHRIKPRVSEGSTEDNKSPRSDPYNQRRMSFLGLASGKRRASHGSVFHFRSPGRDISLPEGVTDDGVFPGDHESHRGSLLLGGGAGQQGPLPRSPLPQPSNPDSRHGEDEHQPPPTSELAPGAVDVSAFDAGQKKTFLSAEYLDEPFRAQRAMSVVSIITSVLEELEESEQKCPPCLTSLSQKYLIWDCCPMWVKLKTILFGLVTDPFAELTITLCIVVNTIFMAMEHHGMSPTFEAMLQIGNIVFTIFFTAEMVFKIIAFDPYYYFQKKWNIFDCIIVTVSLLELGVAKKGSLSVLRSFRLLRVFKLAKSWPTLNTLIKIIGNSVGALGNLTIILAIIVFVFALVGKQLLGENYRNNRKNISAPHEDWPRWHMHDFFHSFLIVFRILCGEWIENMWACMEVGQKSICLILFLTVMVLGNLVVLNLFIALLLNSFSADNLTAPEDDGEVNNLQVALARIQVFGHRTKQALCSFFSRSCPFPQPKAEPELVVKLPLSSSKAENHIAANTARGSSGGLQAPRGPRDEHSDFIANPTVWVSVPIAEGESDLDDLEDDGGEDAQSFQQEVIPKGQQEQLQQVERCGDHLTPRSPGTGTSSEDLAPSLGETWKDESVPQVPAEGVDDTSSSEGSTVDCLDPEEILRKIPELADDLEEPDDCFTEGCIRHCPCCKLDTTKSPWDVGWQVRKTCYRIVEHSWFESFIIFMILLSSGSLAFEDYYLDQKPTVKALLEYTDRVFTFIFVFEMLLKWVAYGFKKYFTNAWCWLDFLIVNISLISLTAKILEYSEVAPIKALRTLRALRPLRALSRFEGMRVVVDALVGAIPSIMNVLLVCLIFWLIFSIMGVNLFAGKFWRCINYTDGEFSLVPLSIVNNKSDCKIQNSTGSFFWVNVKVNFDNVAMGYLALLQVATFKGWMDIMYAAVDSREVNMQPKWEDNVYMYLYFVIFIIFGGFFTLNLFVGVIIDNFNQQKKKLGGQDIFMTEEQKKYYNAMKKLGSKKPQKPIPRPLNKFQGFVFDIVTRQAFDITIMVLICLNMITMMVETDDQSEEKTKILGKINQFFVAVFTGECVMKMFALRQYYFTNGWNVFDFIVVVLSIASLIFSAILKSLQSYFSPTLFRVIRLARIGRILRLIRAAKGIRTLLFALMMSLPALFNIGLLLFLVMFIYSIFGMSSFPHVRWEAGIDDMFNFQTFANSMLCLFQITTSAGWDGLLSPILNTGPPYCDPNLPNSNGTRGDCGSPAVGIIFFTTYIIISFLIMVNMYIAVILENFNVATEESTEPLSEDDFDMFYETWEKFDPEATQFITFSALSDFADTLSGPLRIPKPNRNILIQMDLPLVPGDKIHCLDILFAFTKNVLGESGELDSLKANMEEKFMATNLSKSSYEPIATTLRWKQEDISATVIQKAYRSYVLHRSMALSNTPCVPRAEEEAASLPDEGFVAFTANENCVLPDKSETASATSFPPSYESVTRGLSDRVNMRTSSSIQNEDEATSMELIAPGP

A word on the IC50: it is the concentration that gives 50% inhibition. Broadly, the AUC is concentration integrated over time. For orientation: half-life means how long it takes for the measured level to halve. In the case of `COc1cc(F)ccc1Oc1cc(C(F)(F)F)c(Cl)cc1C(=O)Nc1cn[nH]c(=O)c1` [Example 11, 5-Chloro-2-(4-fluoro-2-methoxyphenoxy)-N-(6-oxo-1,6-dihydropyridazin-4-yl)-4-(trifluoromethyl)benzamide], the IC50 in data set [1] turned out to be 1.3 nM. Further, in data set [2], the Vd/F is 5.33 ± 0.72 L/kg, the AUC amounted to 1230 ± 621 ng·h/mL, the bioavailability amounted to 98% and the CL/F came out at 32.3 ± 15.2 mL/min/kg. In data set [2], the half-life was 2.3 ± 1.14 h and the Cmax is 218 ± 103 ng/mL.
The MRT is the average time that molecules of a dose stay in the body. In the case of `O=C(Nc1cn[nH]c(=O)c1)c1cc(Cl)c(C(F)(F)F)cc1Oc1ccc(F)cc1OC(F)(F)F` [Example 15, 5-Chloro-2-(4-fluoro-2-(trifluoromethoxy)phenoxy)-N-(6-oxo-1,6-dihydropyridazin-4-yl)-4-(trifluoromethyl)benzamide], in data set [1], the IC50 amounted to 4.7 nM. Further, in data set [2], the Vd/F was 7.15 ± 0.682 L/kg, the AUC was 5690 ± 552 ng·h/mL, the bioavailability amounted to 94% and the CL/F came out at 1.46 ± 0.11 mL/min/kg. Also, in data set [2], the half-life was 56.7 ± 6.6 h, the Cmax was 295 ± 44 ng/mL and the MRT is 82.4 ± 10.2 h.
As to `Cc1cc(F)ccc1Oc1cc(C(F)(F)F)c(Br)cc1C(=O)Nc1cn[nH]c(=O)c1` [Example 33, 5-Bromo-2-(4-fluoro-2-methylphenoxy)-N-(6-oxo-1,6-dihydropyridazin-4-yl)-4-(trifluoromethyl)benzamide], in data set [1], the IC50 was 0.86 nM. Moreover, in data set [2], the Vd/F was 3.99 ± 0.788 L/kg, the AUC was 5550 ± 3020 ng·h/mL, the bioavailability was 99% and the CL/F turned out to be 6.4 ± 5.57 mL/min/kg. In data set [2], the half-life is 18.6 ± 17.5 h, the Cmax came to 382 ± 88 ng/mL and the MRT was 27.7 ± 24.2 h.
Take `O=C(Nc1cn[nH]c(=O)c1)c1cc(Cl)c(C(F)(F)F)cc1Oc1ccc(F)cc1OC1CC1` [Example 12, 5-Chloro-2-(2-cyclopropoxy-4-fluorophenoxy)-N-(6-oxo-1,6-dihydropyridazin-4-yl)-4-(trifluoromethyl)benzamide]: the IC50 in data set [1] was 0.26 nM. Besides, in data set [2], the Vd/F worked out at 4.17 ± 0.587 L/kg, the AUC stood at 5980 ± 1130 ng·h/mL, the bioavailability was found to be 111% and the CL/F came to 4.3 ± 1.65 mL/min/kg. Further, in data set [2], the half-life is 13.2 ± 7.8 h, the Cmax came to 435 ± 64 ng/mL and the MRT was found to be 19.8 ± 10.4 h.
Take `Cc1cc(F)ccc1Oc1cc(C(F)(F)F)c(C)cc1C(=O)Nc1cn[nH]c(=O)c1` [Example 34, 2-(4-Fluoro-2-methylphenoxy)-5-methyl-N-(6-oxo-1,6-dihydropyridazin-4-yl)-4-(trifluoromethyl)benzamide]: the IC50 in data set [1] is 11.5 nM.
As to `Cc1cc(F)ccc1Oc1cc(C(F)(F)F)c(Cl)cc1C(=O)Nc1cn[nH]c(=O)c1` [Example 2, 5-Chloro-2-(4-fluoro-2-methylphenoxy)-N-(6-oxo-1,6-dihydropyridazin-4-yl)-4-(trifluoromethyl)benzamide], the half-inhibitory concentration (IC50) in data set [1] came to 1.3 nM. Moreover, in data set [2], the Vd/F is 4.71 ± 1.29 L/kg, the AUC came out at 5960 ± 4280 ng·h/mL, the bioavailability came out at 149% and the CL/F came out at 6.24 ± 6.29 mL/min/kg. For the same compound, in data set [2], the half-life is 47 ± 54.6 h, the Cmax is 399 ± 153 ng/mL and the MRT came out at 68.2 ± 78.3 h.
For `[2H]C([2H])([2H])Oc1cc(F)ccc1Oc1cc(C(F)(F)F)c(Cl)cc1C(=O)Nc1cn[nH]c(=O)c1` [Example 35, 5-Chloro-2-(4-fluoro-2-(methoxy-d3)phenoxy)-N-(6-oxo-1,6-dihydropyridazin-4-yl)-4-(trifluoromethyl)benzamide], the IC50 in data set [1] was 0.54 nM. Moreover, in data set [2], the Vd/F worked out at 5.01 ± 0.875 L/kg, the AUC came to 4330 ± 910 ng·h/mL, the bioavailability came to 107% and the CL/F stood at 7.93 ± 1.47 mL/min/kg. In data set [2], the half-life was 7.5 ± 1.92 h, the Cmax stood at 392 ± 43 ng/mL and the MRT is 10.6 ± 2.3 h.
Take `Cc1ccccc1Oc1cc(C(F)(F)F)c(Cl)cc1C(=O)Nc1cn[nH]c(=O)c1` [Example 30, 5-Chloro-N-(6-oxo-1,6-dihydropyridazin-4-yl)-2-(o-tolyloxy)-4-(trifluoromethyl)benzamide]: the IC50 in data set [1] amounted to 16.2 nM.
On to `Cc1cc(F)ccc1Oc1cc(Cl)ccc1C(=O)Nc1cn[nH]c(=O)c1` [Example 20, 4-Chloro-2-(4-fluoro-2-methylphenoxy)-N-(6-oxo-1,6-dihydropyridazin-4-yl)benzamide], for which the IC50 in data set [1] is 58.5 nM.
For the compound `O=C(Nc1cn[nH]c(=O)c1)c1cc(Cl)c(C(F)(F)F)cc1Oc1ccc(F)cc1C1CC1` [Example 31, 5-Chloro-2-(2-cyclopropyl-4-fluorophenoxy)-N-(6-oxo-1,6-dihydropyridazin-4-yl)-4-(trifluoromethyl)benzamide], the IC50 in data set [1] was determined as 0.94 nM. Further, in data set [2], the Vd/F was 5.44 ± 0.705 L/kg, the AUC came out at 5620 ± 1230 ng·h/mL, the bioavailability was found to be 66% and the CL/F turned out to be 3.77 ± 2.7 mL/min/kg. In data set [2], the half-life is 33.3 ± 34.8 h, the Cmax turned out to be 360 ± 65 ng/mL and the MRT amounted to 48.3 ± 50.3 h.
Turning to `COc1cc(F)ccc1Oc1ccc(C(F)(F)F)cc1C(=O)Nc1cn[nH]c(=O)c1` [Example 16, 2-(4-Fluoro-2-methoxyphenoxy)-N-(6-oxo-1,6-dihydropyridazin-4-yl)-5-(trifluoromethyl)benzamide], in data set [1], the 50% inhibitory concentration (IC50) worked out at 17.9 nM.
As for `Cc1cc(OC(F)(F)F)ccc1Oc1cc(C(F)(F)F)ccc1C(=O)Nc1cn[nH]c(=O)c1` [Example 6, 2-(2-Methyl-4-(trifluoromethoxy)phenoxy)-N-(6-oxo-1,6-dihydropyridazin-4-yl)-4-(trifluoromethyl)benzamide], the half-inhibitory concentration (IC50) in data set [1] worked out at 24.4 nM.

(Values after patent publication US20220073471A1 (JIANGSU HENGRUI MEDICINE CO., LTD., priority 2019, published 2022).)
